Patent US10696693B2, “Fused imidazole derivatives as TGF-beta inhibitors” (Rigel Pharmaceuticals, Inc., priority 2014, dated 2020)
Where two headings read alike, the source gives them in different places.

Key:
[1] = system: GDF8; assay: AlphaScreen SureFire p-SMAD3 (Ser423/425) assay, GDF8-stimulated cells; type: cell-based
In short: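 A SureFire AlphaScreen assay measured phosphorylation of endogenous SMAD-3 at Ser423/425 in cell lysates. Cells were treated with three-fold serially diluted compounds in DMSO for about 10 minutes, then stimulated with GDF8. After medium removal, cells were lysed in 1× Lysis Buffer (about 25 μL) with gentle shaking for 5-10 minutes.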

[2] = system: TGF-β; assay: AlphaScreen SureFire p-SMAD3 (Ser423/425) assay, TGF-β-stimulated cells; type: cell-based; details: Mus musculus
In short: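 The p-SMAD-3 (Ser423/425) SureFire assay measured phosphorylation of endogenous SMAD-3 in cell lysates. Cells were plated overnight in collagen-coated plates, exposed to three-fold serially diluted compounds for about 10 minutes, then stimulated with TGFβ. Lysates (5 μL) received acceptor bead mix for 2 hours, then donor beads for 1½ hours before AlphaScreen reading.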

[3] = Mus musculus, MPC-11, p-SMAD3 (Ser423/425) AlphaScreen in cell lysate, MPC11, GDF8 stimulation, read-out: GDF8: inhibition of GDF8 signaling, GDF pSMAD (MPC11)
[4] = p-SMAD3 (Ser423/425) AlphaScreen in cell lysate, MPC-11, TGF-β stimulation, read-out: TGF-β: inhibition of TGF-β signaling, TGF-β pSMAD (MPC-11)
[5] = Mus musculus, MPC-11, read-out: GDF8: inhibition of GDF8 signaling, GDF pSMAD (MPC11), p-SMAD3 (Ser423/425) AlphaScreen in cell lysate, GDF8 stimulation
[6] = MPC-11, read-out: TGF-β: inhibition of TGF-β signaling, TGF-β pSMAD (MPC-11), p-SMAD3 (Ser423/425) AlphaScreen in cell lysate, TGF-β stimulation

SMILES | IC50 [1, 3] [nM] | IC50 [2, 4] [nM] | IC50 [1, 5] [nM] | IC50 [2, 6] [nM] | IC50 ([1]; read-out: GDF8: inhibition of GDF8 signaling, GDF pSMAD (MPC11), p-SMAD3 (Ser423/425) AlphaScreen in cell lysate, GDF8 stimulation) [nM]
Fc1ccc(Cl)cc1-c1nc2n(c1-c1ccc3ncsc3c1)CCC2 [Compound 339, 6-(2-(5-chloro-2-fluoropheny)-6,7-dihydro-5H-pyrrolo[1,2-a]imidazol-3-yl)benzo[d]thiazole] | < 50 | < 50 |  |  | 
NC(=O)C1CCC2(CC1)Cc1nc(-c3ccc(F)cc3)c(-c3ccc4ncnn4c3)n1C2 (stereo not shown) [Compound 80, 3′-([1,2,4]triazolo[1,5-a]pyridin-6-yl)-2′-(4-fluorophenyl)-5′H,7′H-spiro[cyclohexane-1,6′-pyrrolo[1,2-a]imidazole]-4-carboxamide] |  |  | > 1000 | > 1000 | 
Cc1cc(F)c(Cl)cc1-c1nc2n(c1-c1ccc3ncnn3c1)CCC2 [Compound 56, 6-(2-(5-chloro-4-fluoro-2-methylphenyl)-6,7-dihydro-5H-pyrrolo[1,2-a]imidazol-3-yl)-[1,2,4]triazolo[1,5-a]pyridine] | 100 to 1000 | 100 to 1000 |  |  | 
Fc1cc(F)c(-c2nc3n(c2-c2ccc4ncnn4c2)CCC3)cc1Cl [Compound 94, 6-(2-(5-chloro-2,4-difluoro)-6,7-dihydro-5H-pyrrolo[1,2-a]imidazol-3-yl)-[1,2,4]triazolo[1,5-a]pyridine] | < 50 | < 50 |  |  | 
Cc1cc(-c2nc3n(c2-c2ccc4nccnc4c2)CCC3)c(C)cc1F [Compound 310, 6-(2-(4-fluoro-2,5-dimethylphenyl)-6,7-dihydro-5H-pyrrolo[1,2-a]imidazol-3-yl)quinoxaline] |  |  | 100 to 1000 | > 1000 | 
Cc1cc(F)c(-c2nc3n(c2-c2ccc4ncsc4c2)CCC3)cc1F [Compound 285, 6-(2-(2,5-difluoro-4-methylphenyl)-6,7-dihydro-5H-pyrrolo[1,2-a]imidazol-3-yl)benzo[d]thiazole] | > 1000 | > 1000 |  |  | 
Cc1cc(-c2nc3n(c2-c2ccc4[nH]ncc4c2)CCC3)c(C)cc1F [Compound 308, 5-(2-(4-fluoro-2,5-dimethylphenyl)-6,7-dihydro-5H-pyrrolo[1,2-a]imidaol-3-yl)-1H-indazole] | 100 to 1000 | > 1000 |  |  | 
Fc1ccc(-c2nc3n(c2-c2ccc4nccn4c2)CCC3)cc1Cl [Compound 37] | 50 to 100 | 100 to 1000 |  |  | 
Cc1ccc(-c2nc3n(c2-c2ccc4ncsc4c2)CCC3)c(F)c1F [Compound 249, 6-(2-(2,3-difluoro-4-methylphenyl)-6,7-dihydro-5H-pyrrolo[1,2-a]imidazol-3-yl)benzo[d]thiazole] | > 1000 | > 1000 |  |  | 
Fc1ccc(F)c(-c2nc3n(c2-c2ccc4ncsc4c2)CCC3)c1F [Compound 222, 6-(2-(2,3,6-trifluorophenyl)-6,7-dihydro-5H-pyrrolo[1,2-a]imidazol-3-yl)benzo[d]thiazole] | 100 to 1000 | 100 to 1000 |  |  | 
c1ccc(-c2nc3n(c2-c2ccc4ncsc4c2)CCC3)nc1 [Compound 367, 6-(2-(pyridin-2-yl)-6,7-dihydro-5H-pyrrolo[1,2-a]imidazol-3-yl)benzo[d]thiazole] | < 50 | < 50 |  |  | 
CC(=O)N1c2nc(-c3cc(F)cc(F)c3F)c(-c3ccc4ncnn4c3)n2CC1C(=O)O (stereo not shown) [Compound 119, 5-([1,2,4]triazolo[1,5-a]pyridin-6-yl)-1-acetyl-6-(2,3,5-trifluorophenyl)-2,3-dihydro-1H-imidazo[1,2-a]imidazole-2-carboxylic acid] | < 50 | < 50 |  |  | 
Fc1cc(F)c(-c2nc3n(c2-c2ccc4nccnc4c2)CCN3)cc1F [Compound 106, 6-(6-(2,4,5-trifluorophenyl)-2,3-dihydro-1H-imidazo[1,2-a]imidazol-5-yl)quinoxaline] | < 50 | < 50 |  |  | 
Fc1ccc(-c2nc3n(c2-c2ccc4cn[nH]c4c2)CCC3)cc1F [Compound 206, 6-(2-(3,4-difluorophenyl)-6,7-dihydro-5H-pyrrolo[1,2-a]imidazol-3-yl)-1H-indazole] | 100 to 1000 | > 1000 |  |  | 
CN(C)C(=O)C1CCC2(CC1)Cc1nc(-c3ccc(F)cc3)c(-c3ccc4ncnn4c3)n1C2 (stereo not shown) [Compound 79, 3′-([1,2,4]triazolo[1,5-a]pyridin-6-yl)-2′-(4-fluorophenyl)-N,N-dimethyl-5′H,7′H-spiro[cyclohexane-1,6′-pyrrolo[1,2-a]imidazole]-4-carboxamide] |  |  | > 1000 | > 1000 | 
CN1CCC2Cn3c(nc(-c4ccc(F)cc4)c3-c3ccc4ncnn4c3)C2C1 (stereo not shown) [Compound 89, 3-([1,2,4]triazolo[1,5-a]pyridin-6-yl)-2-(4-fluorophenyl)-8-methyl-5a,6,7,8,9,9a-hexahydro-5H-imidazo[1′,2′:1,2]pyrrolo[3,4-c]pyridine] | > 1000 | > 1000 |  |  | 

SMILES | IC50 [1, 3] [nM] | IC50 [2, 4] [nM] | IC50 [1, 5] [nM] | IC50 [2, 6] [nM] | IC50 ([1]; read-out: GDF8: inhibition of GDF8 signaling, GDF pSMAD (MPC11), p-SMAD3 (Ser423/425) AlphaScreen in cell lysate, GDF8 stimulation) [nM]
Nc1ncnc2ccc(-c3c(-c4ccc(F)c(Cl)c4)nc4n3CCC4)cc12 [Compound 347, 6-(2-(3-chloro-4-fluorophenyl)-6,7-dihydro-5H-pyrrolo[1,2-a]imidazol-3-yl)quinazolin-4-amine] | 50 to 100 | 50 to 100 |  |  | 
Cc1cc(-c2nc3n(c2-c2ccc4nccn4c2)CCC3)c(F)cc1F [Compound 39, 6-(2-(2,4-difluoro-5-methylphenyl)-6,7-dihydro-5H-pyrrolo[1,2-a]imidazol-3-yl)imidazo[1,2-c]pyridine] | < 50 | 50 to 100 |  |  | 
Cc1cc(-c2nc3n(c2-c2ccc4ncnn4c2)CCC3)c(C)cc1F [Compound 64, 6-(2-(4-fluoro-2,5-dimethylphenyl)-6,7-dihydro-5H-pyrrolo[1,2-a]imidazol-3-yl)-[1,2,4]triazolo[1,5-a]pyridine] | 100 to 1000 | > 1000 |  |  | 
Fc1ccc(-c2nc3n(c2-c2ccc4ncsc4c2)CCC3)cc1 [Compound 174, 6-(2-(4-fluorophenyl)-6,7-dihydro-5H-pyrrolo[1,2-a]imidazol-3-yl)benzo[d]thiazole] |  |  | 50 to 100 | 100 to 1000 | 
COc1cccc(-c2nc3n(c2-c2ccc4[nH]ncc4c2)CCC3)c1 [Compound 185, 5-(2-(3-methoxyphenyl)-6,7-dihydro-5H-pyrrolo[1,2-a]imidazol-3-yl)-1H-indazole] |  |  | 100 to 1000 | 100 to 1000 | 
Cc1cc(-c2nc3n(c2-c2ccc4ncccc4c2)CCC3)c(Cl)cc1F [Compound 319, 6-(2-(2-chloro-4-fluoro-5-methylphenyl)-6,7-dihydro-5H-pyrrolo[1,2-a]imidazol-3-yl)quinoline] |  |  |  | > 1000 | 100 to 1000
CS(=O)(=O)OCC1CCC2(CC1)Cc1nc(-c3ccc(F)cc3)c(-c3ccc4ncnn4c3)n1C2 (stereo not shown) [Compound 84, (3′-([1,2,4]triazolo[1,5-a]pyridin-6-yl)-2′-(4-fluorophenyl)-5′H,7′H-spiro[cyclohexane-1,6′-pyrrolo[1,2-a]imidazol]-4-yl)methyl methanesulfonate] | > 1000 | > 1000 |  |  | 
Fc1ccc(-c2nc3occn3c2-c2ccc3cn[nH]c3c2)cc1F [Compound 134, 6-(3,4-difluorophenyl)-5-(1H-indazol-6-yl)imidazo[2,1-b]oxazole] | 50 to 100 | 100 to 1000 |  |  | 
Cc1cc(-c2nc3n(c2-c2ccc4nccnc4c2)CCC3)cc(C)c1F [Compound 278, 6-(2-(4-fluoro-3,5-dimethylphenyl)-6,7-dihydro-5H-pyrrolo[1,2-a]imidazol-3-yl)quinoxaline] | > 1000 | > 1000 |  |  | 
Fc1ccc(-c2nc3n(c2-c2cc4cnccc4s2)CCC3)cc1 [Compound 101, 2-(2-(4-fluorophenyl)-6,7-dihydro-5H-pyrrolo[1,2-a]imidazol-3-yl)thieno[3,2-c]pyridine] | 100 to 1000 | 100 to 1000 |  |  | 
OCC1CCC2(CC1)Cc1nc(-c3ccc(F)cc3)c(-c3ccc4ncsc4c3)n1C2 (stereo not shown) [Compound 335, (3′-(benzo[d]thiazol-6-yl)-2′-(4-fluorophenyl)-5′H,7′H-spiro[cyclohexane-1,6′-pyrrolo[1,2-a]imidazol]-4-yl)methanol] |  |  | > 1000 | > 1000 | 
Cc1cc(-c2nc3n(c2-c2ccc4[nH]ncc4c2)CCC3)c(F)cc1F [Compound 268, 5-(2-(2,4-difluoro-5-methylphenyl)-6,7-dihydro-5H-pyrrolo[1,2-a]imidazol-3-yl)-1H-indazole] | < 50 | 50 to 100 |  |  | 
Fc1ccc(-c2nc3n(c2-c2ccc4nccn4c2)CCC3)c(F)c1 [Compound 9] | < 50 | 100 to 1000 |  |  | 
Fc1ccc(-c2nc3occn3c2-c2ccc3ncsc3c2)cc1F [Compound 135, 5-(benzo[d]thiazol-6-yl)-6-(3,4-difluorophenyl)imidazo[2,1-b]oxazole] | < 50 | 50 to 100 |  |  | 
Fc1ccc(-c2nc3n(c2-c2ccc4[nH]ncc4c2)CCC3)c(F)c1 [Compound 201, 5-(2-(2,4-difluorophenyl)-6,7-dihydro-5H-pyrrolo[1,2-a]imidazol-3-yl)-1H-indazole] | < 50 | 100 to 1000 |  |  | 
Cc1cc(F)c(-c2nc3n(c2-c2ccc4[nH]ncc4c2)CCC3)cc1F [Compound 284, 5-(2-(2,5-difluoro-4-methylphenyl)-6,7-dihydro-5H-pyrrolo[1,2-a]imidazol-3-yl)-1H-indazole] |  |  | > 1000 | > 1000 | 
